Data set [1] has as its target Protein kinase C beta type (Homo sapiens, UniProt P05771). Description: Selectivity interaction (SelectScreen profiling (Invitrogen)) EUB0000607a PRKCB. To be noted: at 2 µM.
Data set [2] concerns the target Dual specificity tyrosine-phosphorylation-regulated kinase 1A (Homo sapiens, UniProt Q13627). The experiment in a line: Selectivity interaction (KinomeScan (DiscoverX)) EUB0000666a DYRK1A. To be noted: at 10 µM.
In data set [3] the target is T1, Serine/threonine-protein kinase LATS2 (Homo sapiens) (UniProt Q9NRM7).
T1 sequence (whole entry): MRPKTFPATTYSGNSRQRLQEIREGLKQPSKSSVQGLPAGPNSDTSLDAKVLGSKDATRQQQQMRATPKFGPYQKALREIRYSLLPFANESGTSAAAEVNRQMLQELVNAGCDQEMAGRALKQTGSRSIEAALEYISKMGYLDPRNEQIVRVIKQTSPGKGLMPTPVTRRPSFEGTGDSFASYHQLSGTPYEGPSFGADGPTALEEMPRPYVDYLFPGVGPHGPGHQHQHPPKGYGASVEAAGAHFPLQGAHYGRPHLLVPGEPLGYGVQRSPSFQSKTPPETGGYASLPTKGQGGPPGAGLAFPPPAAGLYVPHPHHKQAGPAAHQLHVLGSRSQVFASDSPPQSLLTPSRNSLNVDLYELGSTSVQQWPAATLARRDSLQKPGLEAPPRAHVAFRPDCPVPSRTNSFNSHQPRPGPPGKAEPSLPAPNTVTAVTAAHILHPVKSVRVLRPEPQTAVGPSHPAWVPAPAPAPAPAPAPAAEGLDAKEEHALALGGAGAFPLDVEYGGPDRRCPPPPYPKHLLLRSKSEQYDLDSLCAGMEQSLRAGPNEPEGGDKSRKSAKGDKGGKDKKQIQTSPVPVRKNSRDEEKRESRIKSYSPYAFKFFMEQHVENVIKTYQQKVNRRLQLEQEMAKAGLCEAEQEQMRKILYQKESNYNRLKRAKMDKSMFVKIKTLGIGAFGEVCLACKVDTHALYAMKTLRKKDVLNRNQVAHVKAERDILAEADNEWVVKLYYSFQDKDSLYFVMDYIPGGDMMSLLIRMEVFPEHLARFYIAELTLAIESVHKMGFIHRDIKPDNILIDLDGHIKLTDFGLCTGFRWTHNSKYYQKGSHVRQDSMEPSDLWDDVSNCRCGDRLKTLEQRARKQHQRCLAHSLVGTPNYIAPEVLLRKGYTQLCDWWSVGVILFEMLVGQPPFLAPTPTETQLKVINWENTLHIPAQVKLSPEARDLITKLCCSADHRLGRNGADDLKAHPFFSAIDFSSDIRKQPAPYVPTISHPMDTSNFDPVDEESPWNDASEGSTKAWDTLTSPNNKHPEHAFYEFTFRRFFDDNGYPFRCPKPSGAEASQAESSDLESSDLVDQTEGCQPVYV
Description: Selectivity interaction (KinomeScan (DiscoverX)) EUB0000655a LATS2. To be noted: at 10 µM.

Data set [4] addresses PAS domain-containing serine/threonine-protein kinase (Homo sapiens) (UniProt Q96RG2). The experiment in a line: Selectivity interaction (KinaseProfiler screening (Millipore)) EUB0000601a PASK. To be noted: at 3 µM.
Data set [5] concerns the target RAC-gamma serine/threonine-protein kinase (Homo sapiens, UniProt Q9Y243). Description: Selectivity interaction (KinomeScan (DiscoverX)) EUB0001619a AKT3. The following applies: at 1 µM.
The target in data set [6] is T2, Dual specificity mitogen-activated protein kinase kinase 4 (Homo sapiens) (UniProt P45985).
T2 sequence (whole entry): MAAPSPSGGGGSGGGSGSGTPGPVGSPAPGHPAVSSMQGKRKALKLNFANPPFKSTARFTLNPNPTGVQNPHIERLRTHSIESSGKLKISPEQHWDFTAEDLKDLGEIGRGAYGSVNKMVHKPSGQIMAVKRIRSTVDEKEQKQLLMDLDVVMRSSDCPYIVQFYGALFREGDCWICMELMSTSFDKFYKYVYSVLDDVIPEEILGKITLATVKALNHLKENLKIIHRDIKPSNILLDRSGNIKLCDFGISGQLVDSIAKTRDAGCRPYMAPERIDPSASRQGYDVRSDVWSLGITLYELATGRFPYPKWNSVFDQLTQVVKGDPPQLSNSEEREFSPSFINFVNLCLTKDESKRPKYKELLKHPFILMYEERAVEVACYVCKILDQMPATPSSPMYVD
Description: Selectivity interaction (ActivX KiNativ screen (ex vivo kinase selectivity in human PBMCs)) EUB0001619a MAP2K4. The format is cell-based. The following applies: PBMC, at 1 µM.

For data set [7], the target named is Mitogen-activated protein kinase 3 (Homo sapiens, UniProt P27361). The experiment in a line: Selectivity interaction (KinomeScan (DiscoverX)) EUB0000695a MAPK3. To be noted: at 100 nM.
Data set [8] concerns the target L-type calcium channel Cav1.2 (CACNA1C) (Homo sapiens, UniProt Q13936). The experiment in a line: Selectivity interaction (Eurofins CEREP Diversity Profile (receptors and ion channels)) EUB0000279b CACNA1C. To be noted: at 10 µM, read-out: % of control.
In data set [9] the target is Protein kinase C eta type (Homo sapiens) (UniProt P24723). The experiment in a line: Selectivity interaction (KinomeScan (DiscoverX)) EUB0000045b PRKCH.
Data set [10] has as its target Tyrosine-protein kinase Lyn (Homo sapiens, UniProt P07948). The experiment in a line: Selectivity interaction (KinomeScan (DiscoverX)) EUB0000618a LYN. To be noted: at 10 µM.
Data set [11] addresses Serine/threonine-protein kinase 24 (Homo sapiens) (UniProt Q9Y6E0). Description: Selectivity interaction (KinomeScan (DiscoverX)) EUB0000618a STK24. The following applies: at 10 µM.

We go through nine compounds from ChEMBL document CHEMBL5465560, “Selectivity Literature for EUbOPEN Chemogenomic Library” (2024).

SMILES strings stand for the structures.

Protein kinase C eta type (Homo sapiens), sequence (P24723 whole entry): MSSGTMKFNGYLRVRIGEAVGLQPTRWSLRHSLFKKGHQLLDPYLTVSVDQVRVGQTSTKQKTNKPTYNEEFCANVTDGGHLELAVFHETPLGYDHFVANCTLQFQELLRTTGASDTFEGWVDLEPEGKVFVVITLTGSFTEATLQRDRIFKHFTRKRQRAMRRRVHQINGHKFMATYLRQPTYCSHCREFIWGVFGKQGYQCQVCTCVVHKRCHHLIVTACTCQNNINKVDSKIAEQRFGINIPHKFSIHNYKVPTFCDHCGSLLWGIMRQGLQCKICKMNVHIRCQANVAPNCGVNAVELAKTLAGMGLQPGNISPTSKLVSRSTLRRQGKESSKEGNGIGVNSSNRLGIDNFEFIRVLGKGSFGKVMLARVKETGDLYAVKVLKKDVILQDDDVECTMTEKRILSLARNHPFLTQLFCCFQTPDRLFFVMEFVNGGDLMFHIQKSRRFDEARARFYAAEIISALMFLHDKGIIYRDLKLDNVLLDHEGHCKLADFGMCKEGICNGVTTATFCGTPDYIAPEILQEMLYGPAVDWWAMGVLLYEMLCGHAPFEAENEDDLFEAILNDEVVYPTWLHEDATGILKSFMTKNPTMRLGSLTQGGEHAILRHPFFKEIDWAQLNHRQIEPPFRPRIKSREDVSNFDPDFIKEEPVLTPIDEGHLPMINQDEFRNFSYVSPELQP
Serine/threonine-protein kinase 24 (Homo sapiens), sequence (Q9Y6E0 whole entry, looked up): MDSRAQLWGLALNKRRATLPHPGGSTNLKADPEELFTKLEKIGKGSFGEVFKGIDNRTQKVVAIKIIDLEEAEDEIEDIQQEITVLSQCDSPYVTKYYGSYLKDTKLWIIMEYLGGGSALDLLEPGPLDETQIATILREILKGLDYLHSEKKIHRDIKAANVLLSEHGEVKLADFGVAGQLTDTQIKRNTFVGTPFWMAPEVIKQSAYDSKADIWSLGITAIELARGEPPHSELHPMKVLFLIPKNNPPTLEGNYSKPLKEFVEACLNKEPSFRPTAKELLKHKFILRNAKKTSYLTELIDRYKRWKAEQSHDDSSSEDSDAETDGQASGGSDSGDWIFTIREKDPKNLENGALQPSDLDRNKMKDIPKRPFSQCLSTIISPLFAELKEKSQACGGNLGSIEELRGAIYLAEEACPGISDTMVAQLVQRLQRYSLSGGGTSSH
Protein kinase C beta type, sequence (P05771 2-671 limits assumed): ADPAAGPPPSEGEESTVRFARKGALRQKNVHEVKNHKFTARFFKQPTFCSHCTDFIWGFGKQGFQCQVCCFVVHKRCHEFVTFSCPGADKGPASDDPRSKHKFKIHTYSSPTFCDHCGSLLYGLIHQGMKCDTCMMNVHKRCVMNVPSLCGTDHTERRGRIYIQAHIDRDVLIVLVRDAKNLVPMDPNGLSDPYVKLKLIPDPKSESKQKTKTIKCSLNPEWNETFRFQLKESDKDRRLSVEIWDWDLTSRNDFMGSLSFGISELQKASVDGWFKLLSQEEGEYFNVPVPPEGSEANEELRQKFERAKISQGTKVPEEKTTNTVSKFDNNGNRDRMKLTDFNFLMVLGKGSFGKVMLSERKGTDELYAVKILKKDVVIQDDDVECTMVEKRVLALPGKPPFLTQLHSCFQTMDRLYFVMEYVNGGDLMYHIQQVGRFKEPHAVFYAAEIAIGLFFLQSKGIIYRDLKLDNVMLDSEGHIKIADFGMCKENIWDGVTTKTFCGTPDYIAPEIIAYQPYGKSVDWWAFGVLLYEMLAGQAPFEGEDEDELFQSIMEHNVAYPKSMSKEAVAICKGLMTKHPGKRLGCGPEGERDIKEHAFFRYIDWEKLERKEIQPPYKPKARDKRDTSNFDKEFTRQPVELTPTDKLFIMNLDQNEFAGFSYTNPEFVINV
Mitogen-activated protein kinase 3, sequence (P27361 whole entry): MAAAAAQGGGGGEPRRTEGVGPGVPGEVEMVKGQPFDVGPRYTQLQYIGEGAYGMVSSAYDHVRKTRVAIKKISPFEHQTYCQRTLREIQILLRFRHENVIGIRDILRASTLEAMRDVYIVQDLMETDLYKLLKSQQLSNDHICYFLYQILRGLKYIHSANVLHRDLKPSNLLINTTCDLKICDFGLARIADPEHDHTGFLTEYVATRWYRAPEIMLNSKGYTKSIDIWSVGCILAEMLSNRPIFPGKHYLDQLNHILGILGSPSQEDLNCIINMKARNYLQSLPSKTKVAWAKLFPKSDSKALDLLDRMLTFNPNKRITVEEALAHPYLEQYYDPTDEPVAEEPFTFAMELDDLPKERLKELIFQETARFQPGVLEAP
RAC-gamma serine/threonine-protein kinase, sequence (Q9Y243 whole entry): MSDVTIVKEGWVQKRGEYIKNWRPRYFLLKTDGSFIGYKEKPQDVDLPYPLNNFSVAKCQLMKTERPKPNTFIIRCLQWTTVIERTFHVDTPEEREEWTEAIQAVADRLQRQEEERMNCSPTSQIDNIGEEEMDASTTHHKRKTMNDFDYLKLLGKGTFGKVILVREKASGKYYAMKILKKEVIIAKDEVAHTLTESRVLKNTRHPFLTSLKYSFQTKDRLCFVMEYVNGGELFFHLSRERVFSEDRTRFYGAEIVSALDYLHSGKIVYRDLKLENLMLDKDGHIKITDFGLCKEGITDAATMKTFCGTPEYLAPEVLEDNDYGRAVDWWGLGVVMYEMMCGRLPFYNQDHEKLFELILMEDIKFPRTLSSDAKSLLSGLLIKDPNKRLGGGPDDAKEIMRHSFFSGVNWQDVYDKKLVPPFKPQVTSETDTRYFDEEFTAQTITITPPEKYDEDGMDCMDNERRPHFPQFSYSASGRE
L-type calcium channel Cav1.2 (CACNA1C), sequence (Q13936 whole entry): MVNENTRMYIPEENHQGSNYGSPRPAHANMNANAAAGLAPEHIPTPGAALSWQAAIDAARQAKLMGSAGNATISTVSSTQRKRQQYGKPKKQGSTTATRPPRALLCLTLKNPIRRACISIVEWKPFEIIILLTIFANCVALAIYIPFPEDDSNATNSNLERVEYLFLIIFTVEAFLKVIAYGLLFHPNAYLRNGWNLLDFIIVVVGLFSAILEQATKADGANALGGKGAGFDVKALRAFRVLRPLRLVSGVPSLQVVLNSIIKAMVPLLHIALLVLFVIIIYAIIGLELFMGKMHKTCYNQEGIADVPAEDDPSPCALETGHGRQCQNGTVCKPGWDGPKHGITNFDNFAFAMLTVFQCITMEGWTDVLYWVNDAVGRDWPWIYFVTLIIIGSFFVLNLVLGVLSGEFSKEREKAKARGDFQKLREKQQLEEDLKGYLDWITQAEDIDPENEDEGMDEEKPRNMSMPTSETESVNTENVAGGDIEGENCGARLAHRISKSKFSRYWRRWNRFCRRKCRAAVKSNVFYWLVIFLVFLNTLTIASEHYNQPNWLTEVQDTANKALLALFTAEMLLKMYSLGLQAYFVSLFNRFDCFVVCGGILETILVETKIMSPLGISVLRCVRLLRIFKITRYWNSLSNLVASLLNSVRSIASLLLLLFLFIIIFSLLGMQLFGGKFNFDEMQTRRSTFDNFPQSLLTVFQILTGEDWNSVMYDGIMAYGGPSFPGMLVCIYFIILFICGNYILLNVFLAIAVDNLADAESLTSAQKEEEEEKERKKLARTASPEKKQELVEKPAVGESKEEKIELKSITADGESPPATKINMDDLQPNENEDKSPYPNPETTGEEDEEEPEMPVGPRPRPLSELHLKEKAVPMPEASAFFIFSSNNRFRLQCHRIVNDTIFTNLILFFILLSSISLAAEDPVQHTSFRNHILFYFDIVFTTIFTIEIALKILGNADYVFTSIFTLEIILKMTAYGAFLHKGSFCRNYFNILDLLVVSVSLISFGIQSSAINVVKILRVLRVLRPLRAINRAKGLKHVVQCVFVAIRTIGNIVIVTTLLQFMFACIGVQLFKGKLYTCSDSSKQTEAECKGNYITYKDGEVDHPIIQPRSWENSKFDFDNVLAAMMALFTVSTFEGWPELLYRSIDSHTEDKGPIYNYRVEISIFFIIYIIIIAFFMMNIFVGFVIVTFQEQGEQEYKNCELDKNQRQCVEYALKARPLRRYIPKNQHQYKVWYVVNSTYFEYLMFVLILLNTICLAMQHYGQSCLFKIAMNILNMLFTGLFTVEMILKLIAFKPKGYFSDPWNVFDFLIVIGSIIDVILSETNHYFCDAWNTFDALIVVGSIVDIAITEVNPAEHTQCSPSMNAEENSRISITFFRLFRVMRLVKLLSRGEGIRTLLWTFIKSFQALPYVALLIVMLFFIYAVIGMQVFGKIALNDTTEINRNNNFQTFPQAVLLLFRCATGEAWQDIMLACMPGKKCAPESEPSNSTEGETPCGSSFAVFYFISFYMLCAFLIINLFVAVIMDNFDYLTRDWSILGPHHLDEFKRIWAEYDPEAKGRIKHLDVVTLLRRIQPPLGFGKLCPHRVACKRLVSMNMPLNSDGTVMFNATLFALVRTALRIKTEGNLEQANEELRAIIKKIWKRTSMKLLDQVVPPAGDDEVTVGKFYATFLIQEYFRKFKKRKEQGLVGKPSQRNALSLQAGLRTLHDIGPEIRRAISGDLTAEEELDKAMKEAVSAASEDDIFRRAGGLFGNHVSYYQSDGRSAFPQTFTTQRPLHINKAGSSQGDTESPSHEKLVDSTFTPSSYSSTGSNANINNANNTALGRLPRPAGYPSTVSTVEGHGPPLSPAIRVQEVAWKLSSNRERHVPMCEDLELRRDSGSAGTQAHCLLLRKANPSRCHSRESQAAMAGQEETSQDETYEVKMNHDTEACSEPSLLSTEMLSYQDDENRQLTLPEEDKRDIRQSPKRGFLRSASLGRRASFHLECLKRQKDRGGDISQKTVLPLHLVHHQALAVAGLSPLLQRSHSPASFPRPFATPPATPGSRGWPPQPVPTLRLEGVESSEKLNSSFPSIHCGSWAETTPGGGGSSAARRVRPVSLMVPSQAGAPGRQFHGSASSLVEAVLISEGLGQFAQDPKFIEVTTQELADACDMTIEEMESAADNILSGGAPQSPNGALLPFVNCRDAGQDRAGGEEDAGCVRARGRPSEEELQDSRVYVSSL

Compound `CNC(=O)Nc1ccc(-c2nc(N3CC4CCC(C3)O4)c3cnn(C4CCC5(CC4)OCCO5)c3n2)cc1` came in with a % of inhibition in data set [1] of 11%. As to `O=C(NOC[C@H](O)CO)c1ccc(F)c(F)c1Nc1ccc(I)cc1F`, the % of control in data set [2] came to 100%. `CN(C)CCOc1ccc(-c2nc(-c3ccncc3)c(-c3ccc4c(c3)CC/C4=N\O)[nH]2)cc1` had a % of control in [3] of 45%.

Compound `CCc1cc(Nc2nccc(-c3c(-c4ccc(OC)c(C(=O)Nc5c(F)cccc5F)c4)nc4ccccn34)n2)c(OC)cc1N1CCC(N2CCN(S(C)(=O)=O)CC2)CC1` returned a % of inhibition in data set [4] of 65%. Take `N#Cc1cccc(-c2c[nH]c3ncnc(N4CCOCC4)c23)c1`: the % of control in data set [5] amounted to 100%. For the same compound, the % of inhibition in [6] came out at 2%. Regarding `Cc1cc(F)c(C(=O)Nc2cccc(-c3nncn3C(C)C)n2)cc1-n1cnc(C2CC2)c1`, in [7], the % of control worked out at 97%.

On to `CC(=O)c1cc(-c2ccccc2OCC2CC2)c2ncccn12`, for which the activity in [8] was 89%. As to `C=CC(=O)Nc1cc(-n2c(=O)ccc3cnc4ccc(-c5ccc(NS(C)(=O)=O)cc5)cc4c32)ccc1C`, the % of control is 98% in [9] (at 1 µM) and 100% in data set [9] (at 10 µM). For the compound `O[C@H]1CC[C@H](Nc2ncc3nc(Nc4c(F)cc(F)cc4F)n([C@H]4CCOC4)c3n2)CC1`, the % of control in data set [10] worked out at 98%; in data set [11] it was 88%.
